Entries after “also recorded” stand apart in the source; their conditions may differ.
Columns and labels:
Assay type in all cases: cell-based, human
[1] = tested on: IMR32 (reduced PSMD5) and Kelly neuroblastoma cells; assay: Viability of IMR32 versus Kelly neuroblastoma cells (CellTiter-Glo); conditions: for sensitivity of IMR32 cells relative to Kelly cells (fold viability): 72 hours after addition, CellTiter-Glo
Protocol: To determine whether these compounds also differentially affect cells with reduced expression of PSDMS, IMR32 and Kelly cells were each cultured in the presence of ABT-263, disulfiram, or elesclomol across a range of concentrations. Cell viability was measured by CellTiter-Glo® Luminescent Cell Viability Assay 72 hours after addition of the compound to cells. The fold viability relative to culture in the absence of the compound was determined for each cell line. […] In the experiment shown in FIG. 24, the lowest lower concentration of ABT-263 and disulfiram tested was 1 uM.
ABT-263 targets several members of the BCL2 family, including BCL2 and BCL-XL.

[2] = tested on: T47D cells with doxycycline inducible PSMD2 KD (Lo19S) versus control cells; assay: Lo19S T47D drug screen (PSMD2 KD versus control cells, CellTiter-Glo); conditions: T47D, Lo19S state by dox-inducible PSMD2 shRNA; compound library screen; 72 h; CellTiter-Glo
Protocol: The effect of each drug on viability of cells was calculated by averaging the duplicate experiments. The data is plotted in FIG. 16 as the log2 of the ratio of viability of PSMD2 KD versus control cells (log2 (shPSMD2/Control)). […] The Selleck natural product library (NPC) comprising 502 compounds in 5 doses and the. NIH bioactive compound library that includes 731 compounds in 4 doses were also screened using the same system.
A deeper understanding of the proteasome inhibitor resistant state could yield insights into the molecular mechanisms activated by cells to cope with proteotoxic stress and elucidate new therapeutic strategies for cancer. With these goals in mind, we screened mechanistically diverse small molecule libraries to identify compound sensitivities altered by the Lo19S and Hi-OXPHOS states. An initial screen was conducted in the isogenic T47D model with transient induction of the Lo19S state as described above, We evaluated >4300 mechanistically well-defined compounds within 4 libraries. The compounds included approved cancer drugs (Selleck anti-cancer library: CDL), common natural products (Natural product library: NPC) and an ^-NIH bioactives library (NIH). Each of these compounds was tested at ≥4 concentrations. (Table S5, data not shown), An additional 2866 compounds from the Boston University's Chemical Methodology and Library Development (CMLD-BU) small molecule collection was screened at a single dose (BULL, see Table S5).
Generation of the Lo19S T47D cell line—For the generation of the T47D Tet-inducible PSMD2 knockdown cell line—the TRIPZ vector with an inducible shRNA targeting PSMD2 was purchased from Dharmacon (clone V3THS_403760). It was introduced to the T47D cells according to manufactures protocol and cells were selected with puromycin […] for one week. The cells were exposed to doxycycline for 24 hours and cells were FACS sorted for the top 10% of most RFP expressing cells (highest expression of shRNA). The cells were further cultured in the absence of doxycycline and PSMD2 knockdown was induced as specified in the text.
After 48 hours the cells were collected counted and plated (in the absence of dox) at 1000 cells/well in 384-well opaque, white assay plates (Coming, NY), 50 uL per well, and incubated overnight at 37° C./5% CO2. Compound stocks from the Cancer drug library containing 349 bioactive compounds that were arrayed in dose 10 nM, 100 nM, 1 uM, 10 uM (Selleck anti-cancer compound library L3000), the natural products library containing 502 compounds that were utilized in 5 doses (dilution of 1:1000 of 2ug/ml, 0.2 ug/ml, 0.002/ug/ml, 0.0002 ug/ml), the NIH bioactive library including 731 drugs in dose of 10 nM, 100 nM, 1 uM, 10 uM and the Boston University's CMLD (Chemical Methodology and Library Development) compound deck containing 2866 compounds in one dose (10 uM), including novel chemotypes that uniquely probe three-dimensional space by employing stereochemical and positional variation within the molecular framework as diversity elements in library design. 50 nl of compounds were pin-transferred (V&P Scientific, CA, pin tool mounted onto Tecan Freedom Evo 150 MCA96 head, Tecan, Calif.) into duplicate assay plates and incubated for 72 h. The DMSO content was 0.1% within each well, Per plate, there are 32 wells of DMSO vehicle control and 32 wells of positive control compounds. After three days of incubation, 10 uL of CellTiter-Glo (Promega, Wis.) was added to each well, incubated for 10 minutes and the luminescence output was read on the M1000 Infinite Pro plate reader (Tecan, Calif.).

[3] = tested on: T47D cells; assay: The glucose/galactose drug screen; conditions: for relative viability change of cells grown in glucose versus galactose: 10 mM Glucose or Galactose, Selleck anti cancer and natural product libraries

CC1(C)CCC(c2ccc(Cl)cc2)=C(CN2CCN(c3ccc(C(=O)NS(=O)(=O)c4ccc(N[C@H](CCN5CCOCC5)CSc5ccccc5)c(S(=O)(=O)C(F)(F)F)c4)cc3)CC2)C1 [ABT-263, navitoclax]
sensitivity of IMR32 cells relative to Kelly cells (fold viability) [1]: dramatically more sensitive; also recorded: significantly more sensitive | preferential sensitivity of IMR32 versus Kelly cells, compared among BCL2 family inhibitors ([1]; ABT-263 versus more specific BCL2, BCL-XL and MCL-1 inhibitors): much greater for ABT-263 | effect of reintroduction (forced expression) of the PSMD5 subunit in IMR32 cells on sensitivity ([1]; IMR32 cells, PSMD5 epigenetically suppressed): did not significantly alter | viability of PSMD2 KD versus control cells (log2 (shPSMD2/Control)) [2]: selectively reduce the viability of PSMD2 KD cells versus control cells; also recorded: selectively sensitized cells

CC(C)C[C@H](NC(=O)[C@H](Cc1ccccc1)NC(=O)c1cnccn1)B(O)O [bortezomib]
sensitivity of IMR32 cells relative to Kelly cells (fold viability) [1]: increased resistance | relative viability change of cells grown in glucose versus galactose [3]: strongest hits in this screen | viability of PSMD2 KD versus control cells (log2 (shPSMD2/Control)) [2]: selectively reduce viability of control cells versus PSMD2 KD cells

CN(NC(=O)CC(=O)NN(C)C(=S)c1ccccc1)C(=S)c1ccccc1 [elesclomol]
sensitivity of IMR32 cells relative to Kelly cells (fold viability) [1]: dramatically more sensitive | relative viability change of cells grown in glucose versus galactose [3]: cells that respire are predominantly sensitive; also recorded: preferentially targeted respiring cells; also recorded: more potent in cells in the Hi-OXPHOS state | number of concentrations at which respiring cells were preferentially targeted ([3]; galactose versus glucose): 5 concentrations | viability of PSMD2 KD versus control cells (log2 (shPSMD2/Control)) [2]: selectively reduce the viability of PSMD2 KD cells versus control cells; also recorded: selectively sensitized cells; also recorded: highly effective in slowing the growth of cells in the Lo19S state
